By IC50 is commonly meant the midpoint of a concentration-inhibition curve.

One assay has as its target T1, Sortase family protein (Staphylococcus aureus, UniProt Q9S446).
T1 sequence (Q9S446 whole entry): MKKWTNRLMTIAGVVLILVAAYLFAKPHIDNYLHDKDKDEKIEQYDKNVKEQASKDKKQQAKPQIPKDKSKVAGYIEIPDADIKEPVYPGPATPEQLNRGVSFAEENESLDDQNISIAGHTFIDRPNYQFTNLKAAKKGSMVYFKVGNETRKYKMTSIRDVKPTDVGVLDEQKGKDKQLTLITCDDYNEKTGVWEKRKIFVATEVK
The assay is described as follows: Inhibition of recombinant Staphylococcus aureus ATCC 6538p sortase lacking the N-terminal membrane anchor domain expressed in Escherichia coli cells TOP10 using Dabcyl-QALPETGEE-Edans substrate measured after 1 hr by fluorescence S13 spectrophotometry.

For another assay, the target named is Isocitrate lyase (Candida albicans, UniProt Q9P8Q7). The assay is described as follows: Inhibition of Candida albicans isocitrate lyase.
Sequence of Isocitrate lyase (Q9P8Q7 whole entry): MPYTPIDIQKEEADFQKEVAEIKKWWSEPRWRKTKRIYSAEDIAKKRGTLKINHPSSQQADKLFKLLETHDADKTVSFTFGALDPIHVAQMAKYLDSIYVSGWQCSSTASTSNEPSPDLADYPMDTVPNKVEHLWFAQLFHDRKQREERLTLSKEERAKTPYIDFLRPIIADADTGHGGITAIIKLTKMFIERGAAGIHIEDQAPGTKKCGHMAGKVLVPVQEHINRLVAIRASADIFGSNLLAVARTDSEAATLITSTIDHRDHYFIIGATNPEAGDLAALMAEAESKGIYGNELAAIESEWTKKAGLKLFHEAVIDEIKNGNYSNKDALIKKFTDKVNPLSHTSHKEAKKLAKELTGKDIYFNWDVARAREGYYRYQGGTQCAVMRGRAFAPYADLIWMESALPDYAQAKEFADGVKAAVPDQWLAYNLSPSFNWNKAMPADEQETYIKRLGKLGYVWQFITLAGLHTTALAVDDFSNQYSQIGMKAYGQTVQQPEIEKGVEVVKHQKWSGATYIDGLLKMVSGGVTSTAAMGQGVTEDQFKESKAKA

As for `O=C(O)c1cc[c]([Hg][OH])cc1`, the IC50 on Sortase family protein is 116 µM.
`CC1(C)CCC[C@]2(C)[C@H]3CC/C(=C\OS(=O)(=O)O)[C@H](CCc4ccoc4)[C@@]3(C)CC[C@@H]12` yielded an IC50 on Isocitrate lyase of 17 µM.

The record behind these values is BindingDB's records for doi:10.1021/np200492k (Seoul National University, 2011).
